Data: ChEMBL document CHEMBL1201862, “PubChem BioAssay data set” (2004)
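Each compound was tested at five concentrations against cells in 96-well plates for 48 hours. Abbreviation: GI50, concentration required for 50% inhibition of growth.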 Activity calls are given as the source filed them. Rule as the data show it: active = GI50 up to about 1.1 µM and inactive = higher.

Experiments:
Assay in all cases: NCI anticancer screen, dose series, 48 h
SK-MEL-28 = tested on: SK-MEL-28
ACHN = tested on: ACHN
M19-MEL = tested on: M19-MEL
OVCAR-8 = tested on: OVCAR-8
XF498 = tested on: XF498
LOX IMVI = tested on: LOX IMVI
HCT-15 = tested on: HCT-15
HOP-18 = tested on: HOP-18
SW-620 = tested on: SW-620
KM-20L2 = tested on: KM-20L2
IGROV-1 = tested on: IGROV-1
K562 = tested on: K562
RPMI-8226 = tested on: RPMI-8226
OVCAR-4 = tested on: OVCAR-4
LXFL 529 = tested on: LXFL 529
SF-539 = tested on: SF-539
COLO 205 = tested on: COLO 205
DLD-1 = tested on: DLD-1
A498 = tested on: A498
HCT-116 = tested on: HCT-116
NCI-H522 = tested on: NCI-H522
SN12C = tested on: SN12C
NCI-H23 = tested on: NCI-H23
786-0 = tested on: 786-0
RXF 393 = tested on: RXF 393
SNB-78 = tested on: SNB-78
UO-31 = tested on: UO-31
MOLT-4 = tested on: MOLT-4
SNB-19 = tested on: SNB-19
NCI-H226 = tested on: NCI-H226
SK-MEL-2 = tested on: SK-MEL-2
SF-268 = tested on: SF-268
A549 = tested on: A549
EKVX = tested on: EKVX
Malme-3M = tested on: Malme-3M
NCI-H460 = tested on: NCI-H460
KM12 = tested on: KM12
HT-29 = tested on: HT-29
OVCAR-5 = tested on: OVCAR-5
UACC-257 = tested on: UACC-257
HCC 2998 = tested on: HCC 2998
SR = tested on: SR
OVCAR-3 = tested on: OVCAR-3
HOP-62 = tested on: HOP-62
SNB-75 = tested on: SNB-75
SF-295 = tested on: SF-295
TK-10 = tested on: TK-10
DMS-114 = tested on: DMS-114
HOP-92 = tested on: HOP-92
HL-60 = tested on: HL-60
U-251 = tested on: U-251

With `CCOC(=O)C1S/C(=N\c2cccc(Cl)c2C)N=C1C` (stereo unspecified) the GI50 (SK-MEL-28) was 40 µM (inactive), the GI50 (ACHN) was 25.3 µM (inactive) and the GI50 (M19-MEL) was 26.9 µM (inactive). The GI50 (OVCAR-8) was 21.3 µM (inactive), the GI50 (XF498) was 19.7 µM (inactive) and the GI50 (LOX IMVI) was 18.1 µM (inactive). For the same compound, the GI50 (HCT-15) was greater than 10 µM, the GI50 (HOP-18) was 28.7 µM (inactive) and the GI50 (SW-620) was 28.4 µM (inactive). The GI50 (KM-20L2) was 17.3 µM (inactive), the GI50 (IGROV-1) was 31.3 µM (inactive) and the GI50 (K562) was 34.1 µM (inactive). The GI50 (RPMI-8226) was 22 µM (inactive), the GI50 (OVCAR-4) was 31 µM (inactive) and the GI50 (LXFL 529) was > 10 µM (inactive). For the same compound, the GI50 (SF-539) was 25.6 µM (inactive), the GI50 (COLO 205) was 21.4 µM (inactive) and the GI50 (DLD-1) was > 10 µM (inactive). The GI50 (A498) was 34.2 µM (inactive), the GI50 (HCT-116) was 22.8 µM (inactive) and the GI50 (NCI-H522) was 18.8 µM (inactive). The GI50 (SN12C) was 18.8 µM (inactive), the GI50 (NCI-H23) was > 10 µM (inactive) and the GI50 (786-0) was 16.1 µM (inactive). For the same compound, the GI50 (RXF 393) was 21.7 µM (inactive), the GI50 (SNB-78) was 33 µM (inactive) and the GI50 (UO-31) was 37.4 µM (inactive). For the same compound, the GI50 (MOLT-4) was 29.7 µM (inactive), the GI50 (SNB-19) was 31.4 µM (inactive) and the GI50 (NCI-H226) was 32.8 µM (inactive). The GI50 (SK-MEL-2) was 19.5 µM (inactive), the GI50 (SF-268) was 30.5 µM (inactive) and the GI50 (A549) was 21.9 µM (inactive). For the same compound, the GI50 (EKVX) was > 10 µM (inactive), the GI50 (Malme-3M) was 19.6 µM (inactive) and the GI50 (NCI-H460) was 33 µM (inactive). For the same compound, the GI50 (KM12) was 27 µM (inactive), the GI50 (HT-29) was 17 µM (inactive) and the GI50 (OVCAR-5) was 18.7 µM (inactive). For the same compound, the GI50 (UACC-257) was > 10 µM (inactive), the GI50 (HCC 2998) was > 10 µM (inactive) and the GI50 (SR) was 24.7 µM (inactive). The GI50 (OVCAR-3) was 22.9 µM (inactive), the GI50 (HOP-62) was 80 µM (inactive) and the GI50 (SNB-75) was 16.3 µM (inactive). For the same compound, the GI50 (SF-295) was 18.8 µM (inactive), the GI50 (TK-10) was 35.6 µM (inactive) and the GI50 (DMS-114) was 30.4 µM (inactive). For the same compound, the GI50 (HOP-92) was 15.1 µM (inactive), the GI50 (HL-60) was 21.6 µM (inactive) and the GI50 (U-251) was 15.1 µM (inactive).
